Where two headings read alike, the source gives them in different places.
Experiments:
[1] = test system: FSH-induced changes in ovarian follicular maturation; assay: Immature Rat Test Procedure (FSH-induced organ wet weight); type: in vivo; conditions: immature rats, twice daily for three days with half-maximal dose of hFSH; for IC50 (mg/Kg) ovaries: ovarian wet weight; for IC50 (mg/Kg) uterus: uterine wet weight
Description: Immature Rat Test Procedure
In order to assess the ability of compounds to affect FSH-induced changes in ovarian follicular maturation in vivo, immature rats (18 days of age) are treated twice daily for three days with compound in the presence of a half-maximal dose of purified human FSH. Animals are treated via the i.p. or p.o. routes. On the fourth day following treatment, animals are euthanized and the ovaries, uterus and spleen (the spleen is a control tissue that should not respond to FHS stimulation) collected for wet weight determination. In each experiment animals treated with vehicle alone or FSH alone are used as negative and positive controls, respectively.

FSH receptor = biological target: T1, FSH receptor (Homo sapiens, UniProt P23945); assay: In Vitro Bio-test Procedure of Agonists and Antagonists to the FSH Receptor (cAMP accumulation in CHO-3D2 cells); type: cell-based; parameters: expressed in transfected cells; host or cells: CHO-3D2 cells
T1 sequence (P23945 18-695): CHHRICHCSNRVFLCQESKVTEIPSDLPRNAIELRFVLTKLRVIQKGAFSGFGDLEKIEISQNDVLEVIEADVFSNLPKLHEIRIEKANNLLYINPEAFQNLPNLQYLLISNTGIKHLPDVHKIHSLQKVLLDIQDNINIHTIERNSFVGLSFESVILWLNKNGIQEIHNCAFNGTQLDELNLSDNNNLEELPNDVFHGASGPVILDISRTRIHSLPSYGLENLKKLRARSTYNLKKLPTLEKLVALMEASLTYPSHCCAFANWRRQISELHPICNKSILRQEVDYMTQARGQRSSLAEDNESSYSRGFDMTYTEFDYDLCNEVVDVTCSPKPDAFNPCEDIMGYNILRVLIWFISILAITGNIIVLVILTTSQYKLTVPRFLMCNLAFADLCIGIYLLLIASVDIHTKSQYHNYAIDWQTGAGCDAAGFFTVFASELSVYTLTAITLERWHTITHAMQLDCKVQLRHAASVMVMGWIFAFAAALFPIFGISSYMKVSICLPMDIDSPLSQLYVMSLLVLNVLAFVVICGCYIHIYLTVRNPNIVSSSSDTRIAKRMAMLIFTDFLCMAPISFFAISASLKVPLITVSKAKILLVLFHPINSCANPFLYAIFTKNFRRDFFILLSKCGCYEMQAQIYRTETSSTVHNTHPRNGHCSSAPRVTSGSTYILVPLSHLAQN
Outline: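 CHO-3D2 cells (30,000/well, plated one day earlier) preincubated 30-45 min, then challenged with compounds in Optimem/0.1% BSA for 30 minutes at 37 deg C; agonist mode at 5 concentrations, antagonist mode against ED20 FSH. cAMP accumulation in medium measured by radioimmunoassay (fmol/mL); ANOVA with Dunnett's or Duncan's test.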

[2] = antagonist mode, inhibition of hFSH-induced cAMP accumulation (ED20 of FSH, […]), CHO-3D2 cells

Row | Compound | IC50 (FSH receptor) [nM] | other results
1 | 2,2′-[(E)-1,2-Ethenediyl]bis[5-[[4-(methylthio)-3-(4-morpholinylsulfonyl)benzoyl]amino]benzenesulfonic Acid] [Example 30b] | – | IC50 (mg/Kg) ovaries ([1]; ip): 8.1 mg/kg; IC50 (mg/Kg) uterus ([1]; ip): 1.3 mg/kg; IC50 (mg/Kg) ovaries ([1]; po): 23 mg/kg; IC50 (mg/Kg) uterus ([1]; po): 10 mg/kg; IC50 (FSH receptor; [2]): 1300 nM
2 | COCCOCCOc1ccc(C(=O)Nc2ccc(/C=C/c3ccc(NC(=O)c4ccc(OCCOCCOC)c(S(=O)(=O)N5CCOCC5)c4)cc3S(=O)(=O)O)c(S(=O)(=O)O)c2)cc1S(=O)(=O)N1CCOCC1 [Example 30a, 2,2′-[(E)-1,2-Ethenediyl]bis[5-[[4-[2-(2-methoxyethoxy)ethoxy]-3-(4-morpholinylsulfonyl)benzoyl]amino]benzenesulfonic Acid]] | 1600 | –
3 | CS(=O)(=O)c1ccc(C(=O)Nc2ccc(/C=C/c3ccc(NC(=O)c4ccc(S(C)(=O)=O)c([N+](=O)[O-])c4)cc3S(=O)(=O)O)c(S(=O)(=O)O)c2)cc1[N+](=O)[O-] [Example 30c, 2.2′-[(E)-1,2-Ethenediyl]bis[5-[[(4-methylsulfonyl)-3-(nitro)-benzoyl]amino]benzenesulfonic Acid]] | – | IC50 (FSH receptor; [2]): 3600 nM
4 | CS(=O)(=O)c1ccc(C(=O)Nc2ccc(/C=C/c3ccc(NC(=O)c4ccc(S(C)(=O)=O)c(S(=O)(=O)N5CCOCC5)c4)cc3S(=O)(=O)O)c(S(=O)(=O)O)c2)cc1S(=O)(=O)N1CCOCC1 [Example 30d, 2,2′-[(E)-1,2-Ethenediyl]bis[5-[[4-(methylsulfonyl)-3-(4-morpholinylsulfonyl)benzoyl]amino]benzenesulfonic Acid]] | 1600 | –
5 | CSc1ccc(C(=O)Nc2ccc(/C=C/c3ccc(NC(=O)c4ccc(S(C)(=O)=O)c([N+](=O)[O-])c4)cc3S(=O)(=O)O)c(S(=O)(=O)O)c2)cc1S(=O)(=O)N1CCOCC1 [Example 30e] | 900 | –
6 | COCCNS(=O)(=O)c1cc(C(=O)Nc2ccc(/C=C/c3ccc(NC(=O)c4ccc(S(C)(=O)=O)c([N+](=O)[O-])c4)cc3S(=O)(=O)O)c(S(=O)(=O)O)c2)ccc1OC [Example 30f] | 3100 | –
7 | COc1ccc(C(=O)Nc2ccc(/C=C/c3ccc(NC(=O)c4ccc(S(C)(=O)=O)cc4)cc3S(=O)(=O)O)c(S(=O)(=O)O)c2)cc1S(=O)(=O)N1CCOCC1 [Example 30g] | – | IC50 (FSH receptor; [2]): 2500 nM
8 | COc1ccc(C(=O)Nc2ccc(/C=C/c3ccc(NC(=O)c4ccc(OC)c(S(=O)(=O)N5CCS(=O)(=O)CC5)c4)cc3S(=O)(=O)O)c(S(=O)(=O)O)c2)cc1S(=O)(=O)N1CCS(=O)(=O)CC1 [Example 30k, 2,2′-[(E)-1,2-Ethenediyl]bis[5-[[3-[(1,1-dioxido-4-thiomorpholinyl)sulfonyl]-4-methoxybenzoyl]amino]benzenesulfonic Acid]] | 1500 | –
9 | COCCNS(=O)(=O)c1cc(C(=O)Nc2ccc(/C=C/c3ccc(NC(=O)c4ccc(OC)c(S(=O)(=O)NCCOC)c4)cc3S(=O)(=O)O)c(S(=O)(=O)O)c2)ccc1OC [Example 30m, 2,2′-[(E)-1,2-Ethenediyl]bis[5-[[4-methoxy-3-[[(2-methoxyethyl)amino]sulfonyl]benzoyl]amino]benzenesulfonic Acid]] | 5800 | –
10 | CS(=O)(=O)c1ccc(C(=O)Nc2ccc(/C=C/c3ccc(NC(=O)c4ccc(S(C)(=O)=O)cc4)cc3S(=O)(=O)O)c(S(=O)(=O)O)c2)cc1 [Example 30q, 2,2′-[(E)-1,2-Ethenediyl]bis[5-[[4-(methylsulfonyl)benzoyl]amino]benzenesulfonic Acid]] | 12000 | –
11 | O=C(Nc1ccc(/C=C/c2ccc(NC(=O)c3ccc(OC4CCOCC4)c(S(=O)(=O)N4CCOCC4)c3)cc2S(=O)(=O)O)c(S(=O)(=O)O)c1)c1ccc(OC2CCOCC2)c(S(=O)(=O)N2CCOCC2)c1 [Example 30r, 2,2′-[(E)-1,2-Ethenediyl]bis[5-[[3-(4-morpholinylsulfonyl)-4-[(tetrahydro-2H-pyran-4-yl)oxy]benzoyl]amino]benzenesulfonic Acid]] | 2000 | –
12 | COc1ccc(C(=O)Nc2ccc(/C=C/c3ccc(NC(=O)c4ccc(OC)c(S(=O)(=O)N5CCOCC5)c4)cc3S(=O)(=O)O)c(S(=O)(=O)O)c2)cc1S(=O)(=O)N1CCOCC1 [Example 30s, 2,2′-[(E)-1,2-Ethenediyl]bis[5-[[4-methoxy-3-(4-morpholinylsulfonyl)benzoyl]amino]benzenesulfonic Acid]] | 4400 | –
13 | COCCOc1ccc(C(=O)Nc2ccc(/C=C/c3ccc(NC(=O)c4ccc(OCCOC)c(S(=O)(=O)N5CCOCC5)c4)cc3S(=O)(=O)O)c(S(=O)(=O)O)c2)cc1S(=O)(=O)N1CCOCC1 [Example 30t, 2,2′-[(E)-1,2-Ethenediyl]bis[5-[[4-(2-methoxyethoxy)-3-(4-morpholinylsulfony)benzoyl]amino]benzenesulfonic Acid]] | 1400 | –
14 | CCS(=O)(=O)c1ccc(C(=O)Nc2ccc(/C=C/c3ccc(NC(=O)c4ccc(S(=O)(=O)CC)cc4)cc3S(=O)(=O)O)c(S(=O)(=O)O)c2)cc1 [Example 32f, 2,2′-[(E)-1,2-Ethenediyl]bis[5-[[4-(ethylsulfonyl)benzoyl]amino]benzenesulfonic Acid]] | 4200 | –
15 | COc1ccc(C(=O)Nc2ccc(/C=C/c3ccc(NC(=O)c4ccc(OC)c(S(=O)(=O)N5CCSCC5)c4)cc3S(=O)(=O)O)c(S(=O)(=O)O)c2)cc1S(=O)(=O)N1CCSCC1 [Example 33d, 2,2′-[(E)-1,2-Ethenediyl]bis[5-[[4-methoxy-3-(4-thiomorpholinylsulfonyl)benzoyl]amino]benzenesulfonic Acid]] | 2600 | –
16 | COc1ccc(C(=O)Nc2ccc(/C=C/c3ccc(NC(=O)c4ccc(OC)c(S(=O)(=O)N5CCCC5)c4)cc3S(=O)(=O)O)c(S(=O)(=O)O)c2)cc1S(=O)(=O)N1CCCC1 [Example 33e, 2,2′-[(E)-1,2-Ethenediyl]bis[5-[[4-methoxy-3-(1-pyrrolidinylsulfonyl)benzoyl]amino]benzenesulfonic Acid]] | 1500 | –
17 | COc1ccc(C(=O)Nc2ccc(/C=C/c3ccc(NC(=O)c4ccc(OC)c(S(=O)(=O)N5CCN(C(C)=O)CC5)c4)cc3S(=O)(=O)O)c(S(=O)(=O)O)c2)cc1S(=O)(=O)N1CCN(C(C)=O)CC1 [Example 34a, 2,2′-[(E)-1,2-Ethenediyl]bis[5-[[3-[(4-acetyl-1-piperazinyl)sulfonyl]-4-methoxybenzoyl]amino]benzenesulfonic Acid]] | 3300 | –
18 | COc1ccc(C(=O)Nc2ccc(/C=C/c3ccc(NC(=O)c4ccc(OC)c(S(=O)(=O)N5CCN(C=O)CC5)c4)cc3S(=O)(=O)O)c(S(=O)(=O)O)c2)cc1S(=O)(=O)N1CCN(C=O)CC1 [Example 34b, 2,2′-[(E)-1,2-Ethenediyl]bis[5-[[3-[(4-formyl-1-piperazinyl)sulfonyl]-4-methoxybenzoyl]amino]benzenesulfonic Acid]] | 1700 | –
19 | COc1ccc(C(=O)Nc2ccc(CCc3ccc(NC(=O)c4ccc(S(C)(=O)=O)cc4)cc3S(=O)(=O)O)c(S(=O)(=O)O)c2)cc1S(=O)(=O)N1CCOCC1 [Example 43a, 5-[[4-Methoxy-3-(4-morpholinylsulfonyl)benzoyl]amino]-2-[2-[4-[[4-(methylsulfonyl)benzoyl]amino]-2-sulfophenyl]ethyl]benzenesulfonic Acid] | 8700 | –
